Measurements published in patent US9550747B2, “Dapagliflozin crystalline form and preparation method thereof” (Jiangsu Hansoh Pharmaceutical Group Co., Ltd., priority 2014, dated 2017).
Where two headings read alike, the source gives them in different places. Each block holds one molecule with its values, some of them ahead of it.

Assays:
[1] = 30° C.±2° C./RH 65%±5%
Protocol: (§1) The crystal resulting from Example 1 was placed under acceleration conditions for 6 months.
Conditions: 30° C.±2° C./RH 65%±5%
(§2) Package: Two layers of low density polyethylene bag for medicinal use were sealed by hot-melt respectively, and desiccant was added. The bag was sealed and packaged with a pharmaceutical composite film bag of polyester/aluminum/polyamide/cast polypropylene.

[2] = 21° C.±2° C./RH 45%±5%
Protocol: as §1
Conditions: 21° C.±2° C./RH 45%±5%
as §2

[3] = not given; remark: listed apart in the source

transformation of the crystal (XRPD) (after grinding): does not result in transformation
transformation of the crystal (XRPD) (after pressing into a tablet, FIG. 2): no transformation
SMILES: CCOc1ccc(Cc2cc([C@@H]3O[C@H](CO)[C@@H](O)[C@H](O)[C@H]3O)ccc2Cl)cc1 [crystal of the present invention, 2-chloro-5-(β-D-glucopyranosyl-1-yl)-4′-ethoxy-diphenylmethane]

HPLC Identification ([1]; 1 Month): accordance
Moisture Content (%) ([1]; 1 Month): 0.82%
Related Substances Maximum Single Impurity (%) ([1]; 1 Month): 0.03%
Related Substances Total Impurity (%) ([1]; 1 Month): 0.10%
Specific Rotation ([1]; 1 Month): +13.2°
Total Content (%) ([1]; 1 Month): 99.6%
XRPD ([1]; 1 Month): accordance
HPLC Identification ([1]; 2 Months): accordance
Moisture Content (%) ([1]; 2 Months): 0.81%
Related Substances Maximum Single Impurity (%) ([1]; 2 Months): 0.03%
Related Substances Total Impurity (%) ([1]; 2 Months): 0.11%
Specific Rotation ([1]; 2 Months): +13.0°
Total Content (%) ([1]; 2 Months): 99.7%
XRPD ([1]; 2 Months): accordance
HPLC Identification ([1]; 3 Months): accordance
Moisture Content (%) ([1]; 3 Months): 0.77%
Related Substances Maximum Single Impurity (%) ([1]; 3 Months): 0.03%
Related Substances Total Impurity (%) ([1]; 3 Months): 0.10%
Specific Rotation ([1]; 3 Months): +13.4°
Total Content (%) ([1]; 3 Months): 99.3%
XRPD ([1]; 3 Months): accordance
HPLC Identification ([1]; 6 Months): accordance
Moisture Content (%) ([1]; 6 Months): 0.81%
Related Substances Maximum Single Impurity (%) ([1]; 6 Months): 0.03%
Related Substances Total Impurity (%) ([1]; 6 Months): 0.13%
Specific Rotation ([1]; 6 Months): +13.3°
Total Content (%) ([1]; 6 Months): 99.5%
XRPD ([1]; 6 Months): accordance
quality indicators of the sample ([1]; 6 Months): did not change significantly
HPLC Identification ([1]; time 0): accordance
Moisture Content (%) ([1]; time 0): 0.76%
Related Substances Maximum Single Impurity (%) ([1]; time 0): 0.04%
Related Substances Total Impurity (%) ([1]; time 0): 0.11%
Specific Rotation ([1]; time 0): +13.3°
Total Content (%) ([1]; time 0): 99.4%
XRPD ([1]; time 0): accordance
HPLC Identification ([2]; 3 Months): accordance
Moisture Content (%) ([2]; 3 Months): 0.77%
Related Substances Maximum Single Impurity (%) ([2]; 3 Months): 0.03%
Related Substances Total Impurity (%) ([2]; 3 Months): 0.11%
Specific Rotation ([2]; 3 Months): +13.1°
Total Content (%) ([2]; 3 Months): 99.8%
XRPD ([2]; 3 Months): accordance
HPLC Identification ([2]; 6 Months): accordance
Moisture Content (%) ([2]; 6 Months): 0.80%
Related Substances Maximum Single Impurity (%) ([2]; 6 Months): 0.03%
Related Substances Total Impurity (%) ([2]; 6 Months): 0.13%
Specific Rotation ([2]; 6 Months): +12.9°
Total Content (%) ([2]; 6 Months): 99.5%
XRPD ([2]; 6 Months): accordance
quality indicators of the sample ([2]; 6 Months): did not change significantly
HPLC Identification ([2]; time 0): accordance
Moisture Content (%) ([2]; time 0): 0.76%
Related Substances Maximum Single Impurity (%) ([2]; time 0): 0.04%
Related Substances Total Impurity (%) ([2]; time 0): 0.11%
Specific Rotation ([2]; time 0): +13.3°
Total Content (%) ([2]; time 0): 99.4%
XRPD ([2]; time 0): accordance
hygroscope ([3]; High humidity test 25° C./RH 75%, day 5): 4.83%
hygroscope ([3]; High humidity test 25° C./RH 75%, day 10): 4.84%
hygroscope ([3]; High humidity test 25° C./RH 95%, day 5): 6.09%
hygroscope ([3]; High humidity test 25° C./RH 95%, day 10): 6.71%
SMILES: CCOc1ccc(Cc2cc([C@@H]3O[C@H](CO)[C@@H](O)[C@H](O)[C@H]3O)ccc2Cl)cc1 [Example 1, 2-chloro-5-(β-D-glucopyranosyl-1-yl)-4′-ethoxy-diphenylmethane]
